Test results taken from publication PMC11659602, “Discovering covalent cyclic peptide inhibitors of peptidyl arginine deiminase 4 (PADI4) using mRNA-display with a genetically encoded electrophilic warhead” (Communications Chemistry, 2024).
Entries after “also recorded” stand apart in the source; their conditions may differ. Like-named read-outs stand apart in the source and are kept apart here. Where a SMILES comes first, the peptide text is derived from it. Bridges are numbered along the chain shown (N, C = ends). [ ]: non-standard residue; d: D form. Orn(fluoroacetimidoyl) = N=C(CF)NCCC[C@H](N)C(=O)O

Assays:
[1] = target: T1, PADI4 C645A (Homo sapiens, UniProt Q9UM07, C645A); assay: Intact mass spectrometry of covalent labelling; assay type: binding; conditions: 20 µM protein, 200 µM peptide, 1 hour at rt
T1 construct: PADI4 (residues 1-663); made in house; host or cells: E. coli NiCo21(DE3)
T1 sequence (Q9UM07 whole entry C645A, the tested form may be a part): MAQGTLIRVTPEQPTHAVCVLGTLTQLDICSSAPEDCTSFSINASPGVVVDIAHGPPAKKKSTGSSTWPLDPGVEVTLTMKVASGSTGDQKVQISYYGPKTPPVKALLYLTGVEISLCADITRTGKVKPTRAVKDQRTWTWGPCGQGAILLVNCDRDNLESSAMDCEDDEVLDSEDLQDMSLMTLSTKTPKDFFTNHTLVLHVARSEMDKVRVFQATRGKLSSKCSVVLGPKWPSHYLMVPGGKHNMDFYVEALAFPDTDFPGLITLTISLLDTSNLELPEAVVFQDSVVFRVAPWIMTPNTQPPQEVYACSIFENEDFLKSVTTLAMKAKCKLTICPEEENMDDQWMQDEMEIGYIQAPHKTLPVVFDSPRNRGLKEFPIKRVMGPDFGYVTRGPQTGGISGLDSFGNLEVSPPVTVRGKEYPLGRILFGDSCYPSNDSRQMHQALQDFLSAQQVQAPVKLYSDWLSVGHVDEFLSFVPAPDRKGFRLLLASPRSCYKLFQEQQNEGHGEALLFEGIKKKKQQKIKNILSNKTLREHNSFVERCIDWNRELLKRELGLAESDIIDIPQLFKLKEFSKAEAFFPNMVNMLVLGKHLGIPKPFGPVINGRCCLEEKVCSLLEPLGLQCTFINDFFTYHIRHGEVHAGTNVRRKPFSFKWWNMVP

[2] = target: T2, PADI4 (Homo sapiens, UniProt Q9UM07); assay: Surface plasmon resonance (SPR), single cycle kinetics; assay type: binding
T2 construct: His6; made in house
T2 sequence (Q9UM07 whole entry): as the sequence (Q9UM07 whole entry C645A, the tested form may be a part) above, with A645C counted along it
In short: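 Biotinylated His-PADI4 captured on CAP chip (~3000 RU); peptides as 5-point 3-fold series in HEPES, 150 mM NaCl, 10 mM CaCl2, 0.1% DMSO, pH 7.5, triplicate. Warhead peptides fitted two-state (k-2 = 0; Ki = k-1/k+1, kinact = k+2); others 1:1.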

[3] = target: T2, PADI4; assay: Intact mass spectrometry of covalent labelling; assay type: binding; conditions: 20 µM PADI4, 200 µM peptide, 1 hour at rt
[4] = target: T2, PADI4; assay: COLDER inhibition assay, BAEE substrate, with or without 1 h preincubation; assay type: biochemical; conditions: for remaining activity at 0.003 µM: peptide 0.003 µM; for remaining activity at 0.01 µM: peptide 0.01 µM; for remaining activity at 3 µM: peptide 3 µM; for remaining activity at 30 µM: peptide 30 µM
In short: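 50 nM His-PADI4 with peptide (final 0.1× the 0.03-500 µM series), 0.6 mg/mL BSA, 10 mM CaCl2 in 50 mM HEPES, 150 mM NaCl, 2 mM DTT, pH 7.5, with or without 1 h preincubation before 10 mM BAEE. After 30 min at rt, EDTA-quenched; citrulline read colorimetrically at 540 nm; mean ± SEM, ≥2 replicates.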

[5] = test system: PADI4; conditions: cited from earlier work
[6] = 1 h, T=1 (1 h preincubation), read-out: PADI4 activity, dose-response data of Figure S15 (individual replicates)
[7] = T=0 (no preincubation), read-out: PADI4 activity, dose-response data of Figure S15 (individual replicates)

With `CC[C@H](C)[C@@H]1NC(=O)[C@@H](Cc2ccc(O)cc2)NC(=O)CSC[C@@H](C(=O)NCC(N)=O)NC(=O)[C@H]([C@@H](C)O)NC(=O)[C@H](C(C)C)NC(=O)[C@H](CC(=O)O)NC(=O)[C@H](CCCNC(=N)CF)NC(=O)[C@H](CC(C)C)NC(=O)[C@H](CC(=O)O)NC(=O)[C@H](Cc2c[nH]c3ccccc23)NC1=O` [cP4_13] ({CH2CO}-[dY]IWDL[Orn(fluoroacetimidoyl)]DVTCG-NH2; thioether N-10) the “covalent labelling of PADI4 C645A by intact MS” value [1] was “no labelling”, the k2 / kinact ([2]; each replicate) was 0.0029 s⁻¹ and the k-1 ([2]; each replicate) was 0.00088 s⁻¹. For the same molecule, the kinact ([2]; each replicate, read-out: k2 / kinact) was 0.0025 s⁻¹, the “binding to PADI4 by SPR” value ([2]; in words) was “among some of the poorest binders” and the kinact ([2]; two-state reaction model, k+2, read-out: SPR kinact (converted)) was 0.00267 s⁻¹. The Ki ([2]; two-state reaction model, k-1/k+1) was 4.3 ± 3.1 µM, the “covalent labelling of PADI4 by intact MS” value [3] was “single; also recorded: covalently bind to C645 of PADI4” and the remaining activity at 0.003 µM [4, 6] was 108%. It also gave a remaining activity at 0.01 µM [4, 6] of 111%, a remaining activity at 3 µM [4, 6] of 87.4% and a remaining activity at 30 µM [4, 6] of 21.7%. For the same molecule, the “inhibition of PADI4 activity” value ([4]; COLDER, in words) was “Neither peptide had strong inhibitory activity”, the remaining activity at 0.003 µM [4, 7] was 103% and the remaining activity at 0.01 µM [4, 7] was 104%. It also gave a remaining activity at 0.03 µM ([4]; T=0 (no preincubation), peptide 0.03 µM, read-out: PADI4 activity, dose-response data of Figure S15 (individual replicates)) of 101%, a remaining activity at 0.1 µM ([4]; T=0 (no preincubation), peptide 0.1 µM, read-out: PADI4 activity, dose-response data of Figure S15 (individual replicates)) of 105% and a remaining activity at 0.3 µM ([4]; T=0 (no preincubation), peptide 0.3 µM, read-out: PADI4 activity, dose-response data of Figure S15 (individual replicates)) of 105%. For the same molecule, the remaining activity at 1 µM ([4]; T=0 (no preincubation), peptide 1 µM, read-out: PADI4 activity, dose-response data of Figure S15 (individual replicates)) was 102%, the remaining activity at 3 µM [4, 7] was 101% and the remaining activity at 10 µM ([4]; T=0 (no preincubation), peptide 10 µM, read-out: PADI4 activity, dose-response data of Figure S15 (individual replicates)) was 96.7%. For the same molecule, the remaining activity at 30 µM [4, 7] was 86.3%.

In the case of `N=C(CF)NCCC[C@H](NC(=O)c1ccccc1)C(N)=O` [Fluoroamidine], the “selectivity for PADI4 over PADI1” value [5] is listed as “limited selectivity”.
